Data published in patent US20230055961A1, “PENTAFLUOROBENZENESULFONAMIDE DERIVATIVES AND USES THEREOF” (Dunad Therapeutics Ltd., priority 2019, published 2023).
Values belong to the compound of their own block, whether it stands above or below them.

Key:
[1] = biological target: FGFR1 (Homo sapiens, UniProt P11362); assay: In vitro kinase inhibition studies (Table 9), FGFR1; type: biochemical
[2] = biological target: FGFR4 (Homo sapiens, UniProt P22455); assay: In vitro kinase inhibition studies (Table 9), FGFR4; type: biochemical
[3] = biological target: T1, BMX (Homo sapiens, UniProt P51813); assay: In vitro kinase inhibition studies (Table 9), BMX; type: biochemical
T1 sequence (P51813 1-675): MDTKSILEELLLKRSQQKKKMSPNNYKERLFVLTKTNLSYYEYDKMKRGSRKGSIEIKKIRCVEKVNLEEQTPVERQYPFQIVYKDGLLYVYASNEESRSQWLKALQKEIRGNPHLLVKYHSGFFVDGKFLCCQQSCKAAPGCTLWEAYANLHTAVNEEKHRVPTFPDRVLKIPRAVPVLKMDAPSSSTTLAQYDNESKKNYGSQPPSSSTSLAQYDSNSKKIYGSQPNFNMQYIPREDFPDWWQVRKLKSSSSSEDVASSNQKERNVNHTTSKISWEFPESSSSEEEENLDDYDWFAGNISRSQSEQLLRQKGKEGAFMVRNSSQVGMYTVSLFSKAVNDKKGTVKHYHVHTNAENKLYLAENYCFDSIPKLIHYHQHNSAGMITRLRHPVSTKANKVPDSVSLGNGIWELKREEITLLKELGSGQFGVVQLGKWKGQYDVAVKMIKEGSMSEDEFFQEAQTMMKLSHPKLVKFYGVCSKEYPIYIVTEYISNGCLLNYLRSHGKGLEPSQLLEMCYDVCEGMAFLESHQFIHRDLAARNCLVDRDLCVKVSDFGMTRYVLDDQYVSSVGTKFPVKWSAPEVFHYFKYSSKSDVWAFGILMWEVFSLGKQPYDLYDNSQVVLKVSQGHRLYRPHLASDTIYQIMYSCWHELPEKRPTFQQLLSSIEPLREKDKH

[4] = test system: RL cells; assay: IC50 of Ibrutinib analogs against human cancer cells, RL cells (Table 14); type: cell-based; details: Homo sapiens, RL, Table 14; RL human non-Hodgkin's lymphoma B cell line; read-out: RL (IC50)
Method: 1×10^4 cells (NHF cells)/well are plated in 96-well assay plates in culture medium. […] After 24 hrs, test compounds and vehicle controls are added to appropriate wells so the final volume is 100p in each well. The cells are cultured for the desired test exposure period (72 hrs) at 37° C. and 5% CO2. The assay plates are removed from 37° C. incubator and 20 μl/well of CellTiter-Blue® Reagent is added. The plates are incubated using standard cell culture conditions for 1-4 hours and the plates are shaken for 10 seconds and record fluorescence at 560/590 nm. […] Therapeutic index=(IC50 human fibroblasts/IC50 […] )

[5] = test system: MV-4-11; assay: In vitro IC50 against human cancer cells (Table 11), MV-4-11; type: cell-based; details: MV4-11, read-out: Human cancer cell lines (IC50, μM) MV-4-11
[6] = test system: MOLM-13; assay: In vitro IC50 against human cancer cells (Table 11), MOLM-13; type: cell-based; details: read-out: Human cancer cell lines (IC50, μM) MOLM-13
[7] = biological target: T2, His-tagged BTK kinase domain (Homo sapiens, UniProt Q06187); assay: Mass spectral analysis of tryptic digest of His-tagged BTK kinase domain (MSMS of modified peptides); type: binding; details: 10 μM compound, 45 min; for C481 labelled by test compound (tryptic digest peptide): cysteine 481
T2 construct: pET-28b(+)-BTK (402-655) vector; made in house; host or cells: E. coli BL21 (DE3) RILP
Method: A protein kinase that is inhibited by compound and/or pharmaceutically acceptable salt of the present disclosure may be subjected to mass spectral analysis to assess the formation of permanent, irreversible covalent adducts. […] Such methods identify permanent, irreversible covalent protein adducts by observing a mass peak that corresponds to the mass of a control sample plus the mass of an irreversible adduct.
The starter cultures were incubated with shaking at 37° C. until cloudy and used to inoculate 1 L of Super broth containing same concentrations of kanamycin and chloramphenicol, 10 mM MgSO4, 5 mM CaCl2), and 0.1% (w/v) glucose. The cultures were incubated under similar conditions to an OD600 of 0.6-0.8. Before induction with 0.5 mM IPTG, the temperature was reduced to 16° C. The cells were harvested by centrifugation following approximately 18 h and frozen in a −80° C. freezer until use.
Cells were thawed in lysis buffer (50 mM HEPES [pH 7.6], 300 mM NaCl, 10 mM MgCl2, 10% [v/v] glycerol, 0.1 mg/mL lysozyme, 50 μg/mL DNase I, and protease inhibitors). Cells were sonicated (30 s on, 60 s off) for 3 repeating cycles. The cell lysates were cleared by centrifugation at 4° C. […] This eluant was cleaved with Ulp1 protease and loaded onto a S200 Superdex FPLC column (GE healthcare) pre-equilibrated with 20 mM HEPES pH 7.4, 150 mM NaCl, and 10% [v/v] glycerol. Pure fractions of His-tagged BTK kinase domain, as judged by SDS-PAGE, were pooled and concentrated using Amicon 10 kDa cutoff concentrators and after aliquoting stored at −80 C until use.
After the incubation time, the reactions were quenched by acetone precipitation and the pellet was re-dissolved in 8 M Urea. The protein was then reduced (5 mM DTT), alkylated (15 mM iodoacetamide) and digested (1 μg trypsin at 37° C. for 4 hours). The digest was then stopped by addition of trifluoroacetic acid, and peptides were removed from gel band by sonicating with increasing amounts of acetonitrile (0%, 30%, & 60%). Peptides were then purified using C18 ziptips, spotted on the MALDI target plate with a-cyano-4-hydroxycinnamic acid as the desorption matrix (10 mg/ml in 0.1% TFA: Acetonitrile 50:50), and analyzed in reflectron mode.

[8] = 10 μM His-BTK KD, tryptic digest MSMS

T2 sequence (Q06187 402-655): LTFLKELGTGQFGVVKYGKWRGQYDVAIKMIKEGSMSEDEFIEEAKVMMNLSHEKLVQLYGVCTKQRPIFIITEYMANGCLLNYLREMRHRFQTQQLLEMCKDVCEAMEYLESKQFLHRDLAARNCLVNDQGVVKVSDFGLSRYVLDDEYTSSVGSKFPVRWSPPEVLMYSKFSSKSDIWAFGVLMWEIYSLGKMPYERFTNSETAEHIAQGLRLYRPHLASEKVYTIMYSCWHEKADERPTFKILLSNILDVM
Sequence of FGFR1 (P11362 22-822, species assumed): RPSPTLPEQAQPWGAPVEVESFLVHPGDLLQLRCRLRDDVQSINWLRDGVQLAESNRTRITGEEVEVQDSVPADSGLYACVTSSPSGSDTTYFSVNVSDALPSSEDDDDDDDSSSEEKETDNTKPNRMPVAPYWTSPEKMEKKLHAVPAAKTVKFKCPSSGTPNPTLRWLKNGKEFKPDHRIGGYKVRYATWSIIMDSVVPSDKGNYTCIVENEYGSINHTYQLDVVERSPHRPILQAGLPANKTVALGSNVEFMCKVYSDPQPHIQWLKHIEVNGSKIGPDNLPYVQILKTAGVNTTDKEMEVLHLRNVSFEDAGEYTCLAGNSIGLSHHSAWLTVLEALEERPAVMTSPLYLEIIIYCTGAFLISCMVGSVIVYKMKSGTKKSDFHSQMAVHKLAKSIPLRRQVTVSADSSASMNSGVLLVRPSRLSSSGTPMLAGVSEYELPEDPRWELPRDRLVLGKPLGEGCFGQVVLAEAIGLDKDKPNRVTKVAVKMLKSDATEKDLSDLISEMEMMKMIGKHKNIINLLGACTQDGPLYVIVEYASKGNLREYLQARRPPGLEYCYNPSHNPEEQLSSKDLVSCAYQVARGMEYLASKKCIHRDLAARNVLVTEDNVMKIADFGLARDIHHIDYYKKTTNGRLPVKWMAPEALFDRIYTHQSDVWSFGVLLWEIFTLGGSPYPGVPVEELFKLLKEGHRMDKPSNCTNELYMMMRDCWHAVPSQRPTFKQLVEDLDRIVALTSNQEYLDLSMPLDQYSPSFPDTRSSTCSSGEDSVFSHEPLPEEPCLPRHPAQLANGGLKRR
Sequence of FGFR4 (P22455 22-802, species assumed): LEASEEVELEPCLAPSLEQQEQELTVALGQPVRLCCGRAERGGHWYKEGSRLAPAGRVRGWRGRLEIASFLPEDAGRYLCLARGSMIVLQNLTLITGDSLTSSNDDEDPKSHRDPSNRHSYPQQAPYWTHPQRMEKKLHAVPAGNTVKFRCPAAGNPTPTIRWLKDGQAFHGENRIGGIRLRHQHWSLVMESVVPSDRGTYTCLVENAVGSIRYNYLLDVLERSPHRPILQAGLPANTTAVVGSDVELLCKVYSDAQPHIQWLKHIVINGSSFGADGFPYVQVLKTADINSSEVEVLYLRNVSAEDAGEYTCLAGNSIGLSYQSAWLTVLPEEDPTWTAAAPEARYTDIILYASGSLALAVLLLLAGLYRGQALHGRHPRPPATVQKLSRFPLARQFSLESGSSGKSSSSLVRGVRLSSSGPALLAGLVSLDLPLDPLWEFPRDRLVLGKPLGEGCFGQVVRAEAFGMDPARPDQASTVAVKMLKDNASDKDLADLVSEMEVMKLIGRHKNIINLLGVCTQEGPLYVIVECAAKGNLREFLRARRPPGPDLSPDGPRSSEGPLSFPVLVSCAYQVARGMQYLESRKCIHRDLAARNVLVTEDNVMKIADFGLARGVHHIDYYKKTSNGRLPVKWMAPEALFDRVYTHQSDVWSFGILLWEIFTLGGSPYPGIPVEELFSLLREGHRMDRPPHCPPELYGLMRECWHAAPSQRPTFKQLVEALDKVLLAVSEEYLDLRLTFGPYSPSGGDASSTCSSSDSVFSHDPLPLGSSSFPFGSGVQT

Structure (SMILES): Nc1ncnc2c1c(-c1ccc(Oc3ccccc3)cc1)nn2[C@H]1CCCN(S(=O)(=O)c2c(F)c(F)c(F)c(F)c2F)C1 [Compound 5-2, (S)-1-(1-((perfluorophenyl)sulfonyl)piperidin-3-yl)-3-(4-phenoxyphenyl)-1H-pyrazolo[3,4-d]pyrimidin-4-amine]
IC50 [3]: 0.1 to 10 nM

Structure (SMILES): O=S(=O)(Nc1ccc(Oc2ccccc2)cc1)c1c(F)c(F)c(F)c(F)c1F [Compound 4-2, 2,3,4,5,6-pentafluoro-N-(4-phenoxyphenyl)benzenesulfonamide]
IC50 [5]: 10 to 100 µM
IC50 [6]: 10 to 100 µM

Structure (SMILES): COCCOc1ccc(Nc2ncc(F)c(NCCNS(=O)(=O)c3c(F)c(F)c(F)c(F)c3F)n2)cc1 [Compound 5-13, 2,3,4,5,6-pentafluoro-N-(2-((5-fluoro-2-((4-(2-methoxyethoxy)phenyl)amino)pyrimidin-4-yl)amino)ethyl)benzenesulfonamide]
amino acid of BTK modified by one equivalent of compound [7, 8]: Cys-481
observed mass of modified tryptic peptide [7, 8]: 3059.4 Da
C481 labelled by test compound (tryptic digest peptide) ([7]; 10 μM BTK KD): ✓
IC50 [1]: > 2000 nM
IC50 [2]: > 2000 nM

Structure (SMILES): N#Cc1ccc(NS(=O)(=O)c2c(F)c(F)c(F)c(F)c2F)cc1F [Compound 4-5, N-(4-cyano-3-fluorophenyl)-2,3,4,5,6-pentafluorobenzenesulfonamide]
IC50 [5]: 10 to 100 µM

Structure (SMILES): Nc1ncnc2c1c(-c1ccc(Oc3ccccc3)cc1)nn2CCNS(=O)(=O)c1c(F)c(F)c(F)c(F)c1F [Compound 5-3, N-[2-[4-amino-3-(4-phenoxyphenyl)pyrazolo[3,4-d]pyrimidin-1-yl]ethyl]-2,3,4,5,6-pentafluoro-benzenesulfonamide]
C481 labelled by test compound (tryptic digest peptide) ([7]; 10 μM BTK KD): ✓
C527 labelled by test compound (tryptic digest peptide) ([7]; cysteine 527, 10 μM BTK KD): ✓
IC50 [3]: 0.1 to 10 nM

The next lines start with the values.

IC50 [1]: 10 to 300 nM
IC50 [2]: 10 to 300 nM
Structure (SMILES): COCCOc1ccc(Nc2ncc(F)c(Nc3ccc(NS(=O)(=O)c4c(F)c(F)c(F)c(F)c4F)cc3)n2)cc1 [Compound 5-14, 2,3,4,5,6-pentafluoro-N-(4-((5-fluoro-2-((4-(2-methoxyethoxy)phenyl)amino)pyrimidin-4-yl)amino)phenyl)benzenesulfonamide]

IC50 [4]: 1640 nM
IC50 [3]: 10 to 300 nM
Structure (SMILES): Nc1ncnc2c1c(-c1ccc(Oc3ccccc3)cc1)nn2S(=O)(=O)c1c(F)c(F)c(F)c(F)c1F [Compound 5-19, 1-((perfluorophenyl)sulfonyl)-3-(4-phenoxyphenyl)-1H-pyrazolo[3,4-d]pyrimidin-4-amine]

IC50 [3]: 0.1 to 10 nM
Structure (SMILES): COCCOc1ccc(Nc2ncc(F)c(Nc3cccc(N(C)S(=O)(=O)c4c(F)c(F)c(F)c(F)c4F)c3)n2)cc1 [Compound 5-17, 2,3,4,5,6-pentafluoro-N-(3-((5-fluoro-2-((4-(2-methoxyethoxy)phenyl)amino)pyrimidin-4-yl)amino)phenyl)-N-methylbenzenesulfonamide]
